Test results published in paper PMC9090415, “Discovery of small molecule inhibitors of Plasmodium falciparum apicoplast DNA polymerase” (Journal of Enzyme Inhibition and Medicinal Chemistry, 2022).

Molecular target: P. falciparum apicoplast DNA polymerase (Pf-apPOL) (Plasmodium falciparum, UniProt Q8ILY1)
Experiment: Fluorescence-based high-throughput DNA polymerase assay (molecular beacon), primary screen and dose-response
Format: biochemical
Method: The HT assay employs a molecular beacon, a stem-loop DNA template with a Cy3 dye and the Black Hole Quencher on the 3′ and 5′ ends of the DNA, respectively. Pf-apPOL concentration is based on a calculated absorptivity of ε280 = 56750 M^−1 cm^−1. Reactions were carried out at 25 °C, using Corning 3575 […] (well-volume, 20 µL). Assays testing for compound inhibition composed of reaction buffer (pH 7.9 in 50 mM potassium acetate, 20 mM Tris-acetate and 10 mM magnesium acetate), Pf-apPOL (20 nM), DNA substrate (20 nM), dNTPs (6 µM), and compound (10 µM in DMSO). The DNA and nucleotide substrates (dNTPs) were at concentrations of 20 nM and 6 µM, respectively, in the assay. Pf-apPOL was incubated in the reaction buffer with dNTPs and the compound of interest (10 µM, in the assay) at 25 °C for 10 min. The DNA substrate was then added and the reaction was allowed to proceed for 90 min at 25 °C.
Each assay plate contained 16 negative controls (no Pf-apPOL, DMSO present) and 16 positive controls (Pf-apPOL present, no DMSO). The fluorescence of each well was determined using a BioTek Synergy Neo fluorescence plate reader using excitation and emission wavelengths of 555 and 570 nm, respectively.
In the above, Min is the average of fluorescence emission of the negative controls (substrate only), Max the average fluorescence emission from the positive controls (enzyme + substrate), and Test the emission from the assays in the presence of compounds (enzyme + compound + substrates). […] […] The IC50 of each compound was determined using Equation (2): (2) IC50= Vmax/(1+ (I/IC50)^n)
In the above, n measures cooperativity, with n > 1 indicating synergistic binding of more than a single molecule of the compound.
To identify apPOL inhibitors we utilised our previously developed high-throughput DNA polymerase assay. The HT assay is based on a molecular beacon DNA template that forms a stem-loop with a Cy3 dye and the Black Hole Quencher on the 3′ and 5′ ends of the DNA, respectively. DNA polymerase activity extends an annealed primer through the stem region, displacing the fluorophore from the quencher, thereby increasing its fluorescence (Figure 1(A)). The assay accurately recapitulates the kinetic behaviour of apPOL, as measured through more conventional low-throughput gel-based assays. The Z′ factor for the assay described here was 0.9 across all plates (data not shown).
Figure 1. High-throughput screening. (A) The fluorescent-based DNA polymerase assay used to screen the compound libraries. The DNA template strand is a hairpin loop with a primer annealed to the loop. The 3’ end of the primer is 11 bases away from the 6 bp duplex. Strand displacement activity of the DNA polymerase separates the Cy3 dye from the Black hole quencher leading to an increase in fluorescent signal. (B) The high-throughput assay workflow. The DNA polymerase is incubated with […] compound for 10 min prior to addition of the hairpin substrate. The reaction is quenched at 3 different time points and the fluorescent signal is measured and % inhibition is determined using the provided equation.

[1] = supplemental file 2, sheet IC50 nontoxic compounds; Pf-apPOL

P. falciparum apicoplast DNA polymerase (Pf-apPOL), sequence (Q8ILY1 entry or part of it): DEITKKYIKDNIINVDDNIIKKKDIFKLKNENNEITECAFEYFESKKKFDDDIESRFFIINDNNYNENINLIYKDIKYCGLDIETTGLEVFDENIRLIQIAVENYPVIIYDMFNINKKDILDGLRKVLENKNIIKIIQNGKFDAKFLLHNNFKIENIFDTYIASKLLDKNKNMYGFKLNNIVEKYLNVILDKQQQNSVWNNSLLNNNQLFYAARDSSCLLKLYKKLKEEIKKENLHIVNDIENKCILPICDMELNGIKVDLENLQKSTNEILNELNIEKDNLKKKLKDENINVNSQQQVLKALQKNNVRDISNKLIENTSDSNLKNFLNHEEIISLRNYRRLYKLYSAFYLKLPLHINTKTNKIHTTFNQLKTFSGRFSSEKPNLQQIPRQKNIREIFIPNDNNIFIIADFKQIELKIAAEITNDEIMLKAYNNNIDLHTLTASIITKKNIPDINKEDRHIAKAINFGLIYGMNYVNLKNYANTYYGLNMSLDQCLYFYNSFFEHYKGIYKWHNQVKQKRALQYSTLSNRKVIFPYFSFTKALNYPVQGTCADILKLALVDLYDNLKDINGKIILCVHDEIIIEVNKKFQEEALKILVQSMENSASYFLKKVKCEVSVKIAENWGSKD

Cn1nc(C(=O)N2CCc3c(nc4cc(-c5ccccc5)[nH]n4c3=O)C2)c2ccccc21 [Molecule 18, O=c1c2CCN(Cc2nc2n1[nH]c(c2)c1ccccc1)C(=O)c1nn(c2c1cccc2)C]
DNA Pol (186 hits, value of the hit list (primary screen); unit not given; 90 min, 10 µM): 46 | % inhibition Apo pol 10' (DRC-1; 10'; concentration 2.5): 9% | % inhibition Apo pol 10' (DRC-1; 10'; concentration 5): 28% | % inhibition Apo pol 10' (DRC-1; 10'; concentration 10): 66% | % inhibition Apo pol 10' (DRC-1; 10'; concentration 20): 74% | % inhibition Apo pol 10' (DRC-1; 10'; concentration 40): 72% | % inhibition Apo pol 10' (DRC-1; 10'; concentration 80): 55% | % inhibition Apol 90' (DRC-1; 90'; concentration 2.5): 1.64% | % inhibition Apol 90' (DRC-1; 90'; concentration 5): 16% | % inhibition Apol 90' (DRC-1; 90'; concentration 10): 49% | % inhibition Apol 90' (DRC-1; 90'; concentration 20): 59% | % inhibition Apol 90' (DRC-1; 90'; concentration 40): 58% | % inhibition Apol 90' (DRC-1; 90'; concentration 80): 54% | % inhibition apPOL 180' (DRC-1; 180'; concentration 2.5): -3.8% | % inhibition apPOL 180' (DRC-1; 180'; concentration 5): 6% | % inhibition apPOL 180' (DRC-1; 180'; concentration 10): 33% | % inhibition apPOL 180' (DRC-1; 180'; concentration 20): 39% | % inhibition apPOL 180' (DRC-1; 180'; concentration 40): 34% | % inhibition apPOL 180' (DRC-1; 180'; concentration 80): 34% | % inhibition Apo pol 5' (DRC-2, 5', concentration 2.5): 5.33% | % inhibition Apo pol 5' (DRC-2, 5', concentration 5): 20% | % inhibition Apo pol 5' (DRC-2, 5', concentration 10): 36% | % inhibition Apo pol 5' (DRC-2, 5', concentration 20): 45% | % inhibition Apo pol 5' (DRC-2, 5', concentration 40): 43% | % inhibition Apo pol 5' (DRC-2, 5', concentration 80): 30% | % inhibition Apol 40' (DRC-2, 40', concentration 2.5): 4% | % inhibition Apol 40' (DRC-2, 40', concentration 5): 23% | % inhibition Apol 40' (DRC-2, 40', concentration 10): 40% | % inhibition Apol 40' (DRC-2, 40', concentration 20): 54% | % inhibition Apol 40' (DRC-2, 40', concentration 40): 56% | % inhibition Apol 40' (DRC-2, 40', concentration 80): 47% | % inhibition ApPOL 90' (DRC-2, 90', concentration 2.5): 4.38% | % inhibition ApPOL 90' (DRC-2, 90', concentration 5): 23% | % inhibition ApPOL 90' (DRC-2, 90', concentration 10): 39% | % inhibition ApPOL 90' (DRC-2, 90', concentration 20): 54% | % inhibition ApPOL 90' (DRC-2, 90', concentration 40): 55% | % inhibition ApPOL 90' (DRC-2, 90', concentration 80): 48% | % inhibition apPOL 180' (DRC-2, 180', concentration 2.5): 0.809% | % inhibition apPOL 180' (DRC-2, 180', concentration 5): 16% | % inhibition apPOL 180' (DRC-2, 180', concentration 10): 29% | % inhibition apPOL 180' (DRC-2, 180', concentration 20): 45% | % inhibition apPOL 180' (DRC-2, 180', concentration 40): 45% | % inhibition apPOL 180' (DRC-2, 180', concentration 80): 37% | % inhibition Apo pol 5' (DRC-2; 5'; concentration 20): 45% | % inhibition Apol 40' (DRC-2; 40'; concentration 5): 23% | % inhibition Apol 40' (DRC-2; 40'; concentration 20): 54% | % inhibition ApPOL 90' (DRC-2; 90'; concentration 5): 23% | % inhibition ApPOL 90' (DRC-2; 90'; concentration 10): 39% | % inhibition ApPOL 90' (DRC-2; 90'; concentration 20): 54% | % inhibition ApPOL 90' (DRC-2; 90'; concentration 40): 55% | % inhibition apPOL 180' (DRC-2; 180'; concentration 5): 16% | % inhibition apPOL 180' (DRC-2; 180'; concentration 20): 45% | % inhibition apPOL 180' (DRC-2; 180'; concentration 40): 45% | % inhibition Apo pol 10' (first dose-response; 10'; concentration 80): 55% | % inhibition Apol 90' (first dose-response; 90'; concentration 5): 16% | % inhibition Apol 90' (first dose-response; 90'; concentration 80): 54% | % inhibition apPOL 180' (first dose-response; 180'; concentration 20): 39% | % inhibition apPOL 180' (first dose-response; 180'; concentration 40): 34% | % inhibition apPOL 180' (first dose-response; 180'; concentration 80): 34% | DNA Pol (primary screen value, 'DNA Pol' only; 90 min, 10 µM): 46

COc1ccc(NC(=O)Cn2nc3c(cc2=O)CCC3)cc1Cl [Molecule 4]
IC50 [1]: 5.29 µM

COC(=O)c1sc(-c2ccc(C(C)(C)C)cc2)cc1NC(=O)CCC(=O)O [Molecule 87]
IC50 [1]: 8.86 µM

Cc1cc(C)c2c(c1)C1C=CCC1C(c1ccc(C(=O)O)cc1)N2 (centres unmarked) [Molecule 102, Cc1cc(C)c2c(c1)C1C=CCC1C(N2)c1ccc(cc1)C(=O)O]
DNA Pol ('DNA Pol' of the 186 hits list (screen value); 90 min, 10 µM): 60 | % inhibition Apo pol 10' (DRC-1; 10'; conc 2.5): 46.2676% | % inhibition Apo pol 10' (DRC-1; 10'; conc 5): 62.6778% | % inhibition Apo pol 10' (DRC-1; 10'; conc 10): 76.4739% | % inhibition Apo pol 10' (DRC-1; 10'; conc 20): 82.8067% | % inhibition Apo pol 10' (DRC-1; 10'; conc 40): 91.6956% | % inhibition Apo pol 10' (DRC-1; 10'; conc 80): 93.5405% | % inhibition Apol 90' (DRC-1; 90'; conc 2.5): 14.3309% | % inhibition Apol 90' (DRC-1; 90'; conc 5): 28.3959% | % inhibition Apol 90' (DRC-1; 90'; conc 10): 47.4171% | % inhibition Apol 90' (DRC-1; 90'; conc 20): 62.2374% | % inhibition Apol 90' (DRC-1; 90'; conc 40): 86.2676% | % inhibition Apol 90' (DRC-1; 90'; conc 80): 94.9161% | % inhibition apPOL 180' (DRC-1; 180'; conc 2.5): 1.778% | % inhibition apPOL 180' (DRC-1; 180'; conc 5): 12.6672% | % inhibition apPOL 180' (DRC-1; 180'; conc 10): 32.4501% | % inhibition apPOL 180' (DRC-1; 180'; conc 20): 53.0918% | % inhibition apPOL 180' (DRC-1; 180'; conc 40): 83.5057% | % inhibition apPOL 180' (DRC-1; 180'; conc 80): 95.0431% | % inhibition Apo pol 5' (DRC-2; 5'; conc 2.5): 40% | % inhibition Apo pol 5' (DRC-2; 5'; conc 5): 51% | % inhibition Apo pol 5' (DRC-2; 5'; conc 10): 55% | % inhibition Apo pol 5' (DRC-2; 5'; conc 20): 58% | % inhibition Apo pol 5' (DRC-2; 5'; conc 40): 59% | % inhibition Apo pol 5' (DRC-2; 5'; conc 80): 58% | % inhibition Apo pol 5' (DRC-2; 5'; concentration 2.5): 40% | % inhibition Apo pol 5' (DRC-2; 5'; concentration 20): 58% | % inhibition Apo pol 5' (DRC-2; 5'; concentration 40): 59% | % inhibition Apo pol 5' (DRC-2; 5'; concentration 80): 58% | % inhibition Apol 40' (DRC-2; 40'; conc 2.5): 34% | % inhibition Apol 40' (DRC-2; 40'; conc 5): 50% | % inhibition Apol 40' (DRC-2; 40'; conc 10): 59% | % inhibition Apol 40' (DRC-2; 40'; conc 20): 71% | % inhibition Apol 40' (DRC-2; 40'; conc 40): 76% | % inhibition Apol 40' (DRC-2; 40'; conc 80): 75% | % inhibition Apol 40' (DRC-2; 40'; concentration 10): 59% | % inhibition Apol 40' (DRC-2; 40'; concentration 80): 75% | % inhibition ApPOL 90' (DRC-2; 90'; conc 2.5): 28% | % inhibition ApPOL 90' (DRC-2; 90'; conc 5): 47% | % inhibition ApPOL 90' (DRC-2; 90'; conc 10): 58% | % inhibition ApPOL 90' (DRC-2; 90'; conc 20): 73% | % inhibition ApPOL 90' (DRC-2; 90'; conc 40): 80% | % inhibition ApPOL 90' (DRC-2; 90'; conc 80): 79% | % inhibition ApPOL 90' (DRC-2; 90'; concentration 10): 58% | % inhibition apPOL 180' (DRC-2; 180'; conc 2.5): 19% | % inhibition apPOL 180' (DRC-2; 180'; conc 5): 40% | % inhibition apPOL 180' (DRC-2; 180'; conc 10): 54% | % inhibition apPOL 180' (DRC-2; 180'; conc 20): 75% | % inhibition apPOL 180' (DRC-2; 180'; conc 40): 83% | % inhibition apPOL 180' (DRC-2; 180'; conc 80): 83% | % inhibition apPOL 180' (DRC-2; 180'; concentration 5): 40% | % inhibition apPOL 180' (DRC-2; 180'; concentration 20): 75% | % inhibition apPOL 180' (DRC-2; 180'; concentration 40): 83% | % inhibition apPOL 180' (DRC-2; 180'; concentration 80): 83% | DNA Pol (primary screen value, "DNA Pol"; 90 min, 10 µM): 60

C#CC(C=CC)OC(=O)c1ccccc1C(=O)O (centres unmarked) [Molecule 61]
IC50 [1]: 18.3 µM

Cc1ccccc1C(=O)N1CCc2c(nc3cc(-c4ccccc4)[nH]n3c2=O)C1 [Molecule 41]
IC50 [1]: 12.4 µM
